Results: paper PMC8412326, “A novel angiotensin I-converting enzyme inhibitory peptide derived from the trypsin hydrolysates of salmon bone proteins” (PLoS ONE, 2021)
Read-outs that look alike come from different tables or passages of the source. Each block holds one substance with its values, some of them ahead of it. Ends that are not written are not given here.

Legend:
ACE [1] = conditions: cited from earlier work
Description: Trp-Pro-Met-Gly-Phe (636.75 Da) is one such example, obtained from the trypsin hydrolysates of Cyclina sinensis, along with Val-Val-Ser-Leu-Ser-Ile-Pro-Arg (869.53 Da) which comes from pigeon pea seeds. There have been some ACE-inhibitory peptides reported to carry out their ACE-inhibitory activity through an uncompetitive pattern, including Ala-Trp, Phe-Tyr, and Ile-Trp which are derived from wakame hydrolysates of (Undaria pinnatifida) using protease, and also Phe-Glu-Ser-As ...

[2] = target: T1, ACE (E.C. 3.4.15.1) derived from rabbit lungs (Oryctolagus cuniculus, UniProt P12822); assay: ACE-inhibitory activity assay (HHL substrate, TNBS); format: biochemical; conditions: synthetic peptide, purity at least 95%; 5 mM HHL, pH 8.3, 37°C, 1 h, 420 nm
T1 construct: ACE (E.C. 3.4.15.1) derived from rabbit lungs; purchased Sigma Chemical Co. (St. Louis, MO, USA); host or cells: rabbit lung tissue
T1 sequence (P12822 34-1310): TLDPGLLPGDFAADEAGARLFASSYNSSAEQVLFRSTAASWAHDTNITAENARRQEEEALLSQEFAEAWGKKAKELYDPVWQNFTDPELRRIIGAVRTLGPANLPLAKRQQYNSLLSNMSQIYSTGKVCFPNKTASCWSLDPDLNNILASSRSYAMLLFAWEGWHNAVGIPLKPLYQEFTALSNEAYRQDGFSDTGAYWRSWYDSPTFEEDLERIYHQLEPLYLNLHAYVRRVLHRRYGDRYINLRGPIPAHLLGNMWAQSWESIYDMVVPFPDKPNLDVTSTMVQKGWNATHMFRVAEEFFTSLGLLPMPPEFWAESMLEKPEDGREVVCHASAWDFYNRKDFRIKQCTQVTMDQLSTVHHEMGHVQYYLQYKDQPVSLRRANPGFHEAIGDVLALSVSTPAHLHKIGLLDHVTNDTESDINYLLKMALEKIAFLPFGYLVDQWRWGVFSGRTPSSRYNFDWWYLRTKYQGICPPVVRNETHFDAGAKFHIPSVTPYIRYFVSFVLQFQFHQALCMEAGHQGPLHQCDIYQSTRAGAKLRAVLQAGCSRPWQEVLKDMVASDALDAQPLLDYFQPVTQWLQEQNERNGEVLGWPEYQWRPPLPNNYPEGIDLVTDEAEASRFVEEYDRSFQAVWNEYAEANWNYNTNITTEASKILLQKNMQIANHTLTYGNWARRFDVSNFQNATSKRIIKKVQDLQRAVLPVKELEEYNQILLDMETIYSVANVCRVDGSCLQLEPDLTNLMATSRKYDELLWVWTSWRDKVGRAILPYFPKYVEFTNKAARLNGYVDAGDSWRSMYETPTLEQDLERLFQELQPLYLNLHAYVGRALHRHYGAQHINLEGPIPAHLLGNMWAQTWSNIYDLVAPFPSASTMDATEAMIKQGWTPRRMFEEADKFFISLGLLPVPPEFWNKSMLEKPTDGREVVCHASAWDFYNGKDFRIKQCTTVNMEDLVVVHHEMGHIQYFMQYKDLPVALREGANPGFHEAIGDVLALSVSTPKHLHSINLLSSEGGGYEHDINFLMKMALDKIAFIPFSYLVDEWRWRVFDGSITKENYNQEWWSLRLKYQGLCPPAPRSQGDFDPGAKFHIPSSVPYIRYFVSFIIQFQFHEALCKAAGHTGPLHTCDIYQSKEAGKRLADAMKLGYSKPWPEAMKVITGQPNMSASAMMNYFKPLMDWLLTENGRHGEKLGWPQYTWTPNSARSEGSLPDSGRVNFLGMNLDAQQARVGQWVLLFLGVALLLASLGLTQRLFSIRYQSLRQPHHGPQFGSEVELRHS
Description: (§1) The chemicals used in the study included ACE (E.C. 3.4.15.1) derived from rabbit lungs, acetonitrile, bovine serum albumin (BSA), captopril, dithiothreitol (DTT), hippuric acid, hippuryl-L-histidyl-L-leucine (HHL), o-phthaldehyde (OPA), sodium dodecyl sulfate (SDS), sodium tetraborate decahydrate, 2, 4, 6-trinitrobenzenesulfonic acid (TNBS), and Trypsin from porcine pancreas (1500 U/mg), all of which were obtained from Sigma Chemical Co. (St. Louis, MO, USA). In addition, dithiothreitol (DTT) and L-serine were purchased from Merck (Germany). All chemicals used were of analytical grade.
The ACE -inhibition test was performed following the approach of Ibrahim et al.. At the beginning of the inhibition assay, a 10 μL aliquot of the peptide sample was added to 31 μL of 50 mM potassium phosphate buffer with a pH of 8.3 containing 0.3 M NaCl in each well of the 96-well microplate, while PBS was used for the control reaction. […] The ACE -inhibitory activity was determined by measuring the absorbance at 420 nm. […] The following Eq (3) was used to calculate the percentage of ACE -inhibitory activity: ACE-inhibitoryactivity%=C−Bi−S−Bs/C−Bi×100 (3) in which the absorbance of the control is given by C (100% activity), the sample (inhibitor peptide) is given by S, the blank inhibitor (HHL alone) is given by Bi, and the blank sample (peptide alone) is represented by Bs. […]

[3] = Solubility in ultrapure water; format: physicochemical; conditions: read-out: Solubility in ultrapure water (good solubility at concentrations not exceeding the value)
[4] = target: T1, ACE (E.C. 3.4.15.1) derived from rabbit lungs; assay: ACE inhibition kinetics (Lineweaver-Burk); format: biochemical; conditions: secondary plot 1/Vmax vs peptide concentration; 37°C; n = 3
Description: as §1
ACE-inhibition kinetics were evaluated using varied HHL concentrations (0.5, 1, 3, 5, and 7 mM) to which varied FCLYELAR peptide concentrations were introduced (0.05, 0.1 and 0.2 mM). The reaction assay required that the peptide concentrations which had been dissolved in PBS undergo incubation with the ACE solution which contained the different HHL concentrations which had been dissolved in the reaction buffer. Aliquots of sodium sulfite and TNBS were subsequently added prior to 80minutes of incubation at a temperature of 37°C, allowing the level of ACE-inhibitory activity to be evaluated. […] Secondary plots were then used to determine the inhibitor constant (Ki). […]

ACE [5] = conditions: cited from earlier work; remark: listed apart in the source
Description: For example, Phe-Leu was isolated from the hydrolysate of chum salmon muscle by Ono et al.. […] In addition, peptides offering antihypertensive capabilities obtained from ...

[6] = hen egg white lysozyme (HEWL) hydrolysates

Substance: Ala-Trp
Inhibition pattern (ACE [1]; wakame hydrolysates): uncompetitive

IC50 [2]: 31.63 ± 0.15 µM
solubility [3]: ≥ 5000 µg/mL
Ki [4]: 24.8 µM
Substance: FCLYELAR [FCLYELAR, Phe-Cys-Leu-Tyr-Glu-Leu-Ala-Arg]

Substance: FESNFNTQATNR [from lysozyme (HEWL) hydrolysates of hens’ eggs]
Inhibition pattern (ACE [1]; [6]): uncompetitive
Ki (ACE [1]; [6]): 82 µg/mL

Substance: FGASTRGA [from Alaska pollack hydrolysates with pepsin]
IC50 (ACE [5]; Alaska pollack hydrolysate, pepsin): 14.7 µM

Substance: FGMPLDR [from Ulva intestinalis]
IC50 (ACE [5]; Ulva intestinalis): 219 µM

Substance: Gly-Asp-Leu-Gly-Lys-Thr-Thr-Thr-Val-Ser-Asn-Trp-Ser-Pro-Pro-Lys-Try-Lys-Asp-Thr-Pro [from tuna frame protein]
IC50 (ACE [5]; tuna frame protein): 11.3 µM

Substance: Ile-Trp
Inhibition pattern (ACE [1]; wakame hydrolysates): uncompetitive

Substance: MELVLR [from Ulva intestinalis]
IC50 (ACE [5]; Ulva intestinalis): 237 µM

Substance: MEVFVP [from flounder muscle hydrolysates]
IC50 (ACE [5]; flounder muscle hydrolysate): 79 µM

Substance: Phe-Leu
IC50 (ACE [5]; chum salmon muscle hydrolysate, thermolysin): 13.6 µM

Substance: Phe-Tyr
Inhibition pattern (ACE [1]; wakame hydrolysates): uncompetitive

Substance: Trp-Pro-Met-Gly-Phe [from trypsin hydrolysates of Cyclina sinensis]
Inhibition pattern (ACE [1]; Cyclina sinensis trypsin hydrolysates): competitive

Substance: VSQLTR [from flounder muscle hydrolysates]
IC50 (ACE [5]; flounder muscle hydrolysate): 105 µM

Substance: VVSLSIPR [from pigeon pea seeds]
Inhibition pattern (ACE [1]; pigeon pea seeds): competitive

Substance: YLYEIARR [from the tryptic hydrolysate found in human plasma]
Inhibition pattern (ACE [1]; tryptic hydrolysate of human plasma): uncompetitive
